Laboratory results as given in US20250353860A1, “PIPERIDINE CARBOXAMIDE AZAINDANE DERIVATIVE, METHOD FOR PREPARING SAME, AND USE THEREOF” (BRISE PHARMACEUTICALS CO., LTD., priority 2022, published 2025).

Legend:
[1] = target: CGRP receptor (Homo sapiens, UniProt O60894+Q16602); experiment: Affinity for human CGRP receptor ([125I]h-CGRPα competition, CHO cell membranes); type: binding; design: host or cells: CHO-K1; settings: 0.03 nM [125I]h-CGRPα; Cheng Prusoff; read-out: Ki of the affinity determination to human CGRP receptor
Protocol: The cell membrane homogenate of CHO cells expressing human CGRP receptor (comprising 16 μg of protein) was incubated with 0.03 nM [^125I]h-CGRPα and gradiently diluted test samples in buffer (50 mM Hepes-NaOH (pH 7.4), 10 mM MgCl2, 4 mM KCl, 10 mM […], 1 mM EDTA, 1 μM phosphorylation amide, 0.3% BSA and 0.04% bacitracin) at 22° C. for 90 minutes. A control group without the test sample was set up to obtain the highest binding signal of the experiment, and the non-specific binding of the experiment was determined by adding 1 μM non-isotope-labeled h-CGRPα to the control group. After the incubation, a glass fiber filter (GF/B, Packard) soaked with 0.3% PEI was placed in a 96-well cell collector (Unfilter, Packard), and the sample was quickly filtered under vacuum and rinsed several times with precooled buffer comprising 50 mM Tris-HCl and 150 mM NaCl. After the filter was dried, scintillation fluid (Microscint 0, Packard) was added and the radioactive signal value was measured using a scintillation counter (Topcount, Packard). The results are expressed as the percentage of inhibition of specific binding of the radioligand. Non-isotope labeled h-CGRPα was used as a standard sample as a control. The test samples and standard samples were tested at multiple concentrations to obtain a competition curve with [^125I]h-CGRPα, thereby calculating the IC50) 20 of each sample. The inhibition constant Ki was further calculated using the Cheng Prusoff equation: Ki=IC50/(1+L/KD), wherein L represents the concentration of [^125I]h-CGRPα in the system (0.03 nM), and KD represents the dissociation constant between [^125I]h-CGRPα and the human CORP receptor in the system (0.06 nM).

[2] = test system: Cynomolgus monkey blood flow; experiment: Capsaicin-induced Cynomolgus monkey blood flow model; type: in vivo, Cynomolgus monkeys; settings: N = 3
Protocol: In the capsaicin-induced Cynomolgus monkey blood flow model, the inhibitory effect of the compounds of the present application on cynomolgus monkey blood flow was evaluated.
In Example 1A and Example 3A, 100% polyethylene glycol 400 was used as the vehicle.
Experimental animals: male cynomolgus monkeys, with a body weight range of 3.2 kg to 5.80 kg during the administration period, purchased from Guangxi Xiongsen Primate Experimental Animal Breeding and Development Co., Ltd., production license: SCXK (Gui) 2016-0003; experimental animal quality certificate number: NO. 0002942.
Housing conditions: animals were kept in stainless steel cages by a single cage feeding method. The cage specifications are length×width×height=1 m×1 m×0.8 m. Before anesthesia with zoletil, the animals need to be fasted (but not water). The rest of the time, the animals were fed once in the morning and afternoon, about 100 g each time for one animal, supplemented with fresh fruits. The temperature of the animal room was set at 18-26° C., the humidity was 40-70%, and the lighting was alternating between light and dark for 12 hours.
After adaptive feeding, 10 cynomolgus monkeys were randomly selected, and the basal values were recorded using a moorFLPI-2 laser speckle blood flowmeter before capsaicin stimulation. After capsaicin stimulation, blood flow was tested again, and animals with an area under the time-blood flow rate curve (AUC)≥1000 (min·%) and small individual differences were selected to enter this experiment.
The blank vehicle control group was given 100% polyethylene glycol 400, and the drug administration group was given high and low doses of Example 1A and Example 3A (dissolved in 100% polyethylene glycol 400), respectively.
Note: Bolus is a large-dose push injection; Infusion is a small-dose continuous infusion.
Blood flow detection: all animals were given capsaicin once on the day of administration, and blood flow was detected at 0 min (before capsaicin administration), 5 min, 10 min, 15 min, 20 min and 30 min after capsaicin administration to monitor blood flow changes during this period. After the experiment ended that day, washout was carried out at intervals of 7-10 days, during which the experimental animals were rotated in turn. This type of experiment was repeated three times to obtain the average value of each group of data.
The blood flow change rate, AUC (area under the blood flow change rate-time curve) and blood flow inhibition rate were calculated using Excel.

[3] = Pharmacokinetics in Cynomolgus monkeys by oral gavage; type: in vivo; settings: for Pharmacokinetic properties compared with Atogepant: conclusion in words; for AUC / half-life / Cmax: male, cynomolgus monkey, plasma, PO 2 mg/kg; for half-life: read-out: Half-life T½ (converted); for Cmax: read-out: Plasma concentration Cmax
Protocol: The compounds of the present application were administered by gavage to cynomolgus monkeys as test animals, and the drug concentrations in plasma at different times were determined by LC/MS/MS to study the pharmacokinetic characteristics of the compounds of the present application […].
• Positive control compound Atogepant, Example 1A and Example 3A of the present application; • Six healthy adult male Cynomolgus monkeys, Kangshun Biotechnology Co., Ltd.
An appropriate amount of the compound to be tested was weighed, added with 100% polyethylene glycol 400, and vortexed to dissolve the compound. After the preparation was completed, it would be a colorless and transparent solution with a concentration of 1 mg/mL.
Six healthy adult male cynomolgus monkeys were fasted overnight and fed 4 hours after drug administration.
About 0.2 mL of blood was collected from the jugular vein before administration and 0.25 hours, 0.5 hours, 1 hour, 2 hours, 4 hours, 6 hours, 8 hours, 10 hours and 24 hours after administration, and anticoagulated with EDTA-K2. After blood samples were collected, they were placed in labeled ice-water bath centrifuge tubes and rapidly centrifuged to separate plasma. The centrifugation conditions were: 4000 rpm, 10 minutes, 4° C. The collected plasma was stored at below −40° C. for testing. The content of the test compound in the plasma of Cynomolgus monkeys after gavage of different compounds was determined by LC-MS/MS.

[4] = 5 min after capsaicin, 0.3 μg/kg + 0.03 μg/kg/min
[5] = 5 min after capsaicin, 1 μg/kg + 0.1 μg/kg/min
[6] = 10 min after capsaicin, 0.3 μg/kg + 0.03 μg/kg/min
[7] = 10 min after capsaicin, 1 μg/kg + 0.1 μg/kg/min
[8] = 15 min after capsaicin, 0.3 μg/kg + 0.03 μg/kg/min
[9] = 15 min after capsaicin, 1 μg/kg + 0.1 μg/kg/min
[10] = 20 min after capsaicin, 0.3 μg/kg + 0.03 μg/kg/min
[11] = 20 min after capsaicin, 1 μg/kg + 0.1 μg/kg/min
[12] = 30 min after capsaicin, 0.3 μg/kg + 0.03 μg/kg/min
[13] = 30 min after capsaicin, 1 μg/kg + 0.1 μg/kg/min

## C[C@@H]1[C@H](c2c(F)ccc(F)c2F)C[C@H](NC(=O)c2cc3c(s2)C[C@]2(C3)C(=O)Nc3ncccc32)C(=O)N1CC(F)(F)F [Example 3A, (S)—N-((3S,5S,6R)-6-methyl-2-oxo-1-(2,2,2-trifluoroethyl)-5-(2,3,6-trifluorophenyl)piperidin-3-yl)-2′-oxo-1′,2′,4,6-tetrahydrospiro[cyclopenta[b]thiophene-5,3′-pyrrolo[2,3-b]pyridine]-2-carboxamide]
[1]
  Ki: 0.019 nM
[2]; 0.3 μg/kg + 0.03 μg/kg/min
  AUC (area under the blood flow change rate-time curve): 1481 %-min
[2]; 1 μg/kg + 0.1 μg/kg/min
  AUC (area under the blood flow change rate-time curve): 395 %-min
[2]; [4]
  Blood flow change rate: 69%
[2]; [5]
  Blood flow change rate: 27%
[2]; [6]
  Blood flow change rate: 71%
[2]; [7]
  Blood flow change rate: 35%
[2]; [8]
  Blood flow change rate: 69%
[2]; [9]
  Blood flow change rate: 25%
[2]; [10]
  Blood flow change rate: 48%
[2]; [11]
  Blood flow change rate: 3%
[2]; [12]
  Blood flow change rate: 49%
[2]; [13]
  Blood flow change rate: 1%
[3]
  Pharmacokinetic properties compared with Atogepant: good pharmacokinetic properties
  AUC: 3590 ± 742 ng·h/mL
  half-life: 2.96 ± 0.3 h
  Cmax: 778 ± 144 ng/mL

## C[C@@H]1[C@H](c2c(F)ccc(F)c2F)C[C@H](NC(=O)c2cc3c(o2)CC[C@]2(C3)C(=O)Nc3ncccc32)C(=O)N1CC(F)(F)F [Example 1A, (R)—N-((3S,5S,6R)-6-methyl-2-oxo-1-(2,2,2-trifluoroethyl)-5-(2,3,6-trifluorophenyl)piperidin-3-yl)-2′-oxo-1′,2′,6,7-tetrahydro-4H-spiro[benzofuran-5,3′-pyrrolo[2,3-b]pyridine]-2-carboxamide]
[1]
  Ki: 0.017 nM
[2]; 0.3 μg/kg + 0.03 μg/kg/min
  AUC (area under the blood flow change rate-time curve): 454 %-min
[2]; 1 μg/kg + 0.1 μg/kg/min
  AUC (area under the blood flow change rate-time curve): 198 %-min
[2]; [4]
  Blood flow change rate: 26%
[2]; [5]
  Blood flow change rate: 12%
[2]; [6]
  Blood flow change rate: 37%
[2]; [7]
  Blood flow change rate: 21%
[2]; [8]
  Blood flow change rate: 26%
[2]; [9]
  Blood flow change rate: 5%
[2]; [10]
  Blood flow change rate: 12%
[2]; [11]
  Blood flow change rate: 9%
[2]; [12]
  Blood flow change rate: −4%
[2]; [13]
  Blood flow change rate: −6%
[3]
  Pharmacokinetic properties compared with Atogepant: good pharmacokinetic properties
  AUC: 1840 ± 1190 ng·h/mL
  half-life: 3.77 ± 0.2 h
  Cmax: 294 ± 166 ng/mL

## C[C@@H]1[C@H](c2c(F)ccc(F)c2F)C[C@H](NC(=O)c2cnc3c(c2)C[C@@]2(C3)C(=O)Nc3ncccc32)C(=O)N1CC(F)(F)F [Atogepant, reference compound]
[1]
  Ki: 0.0098 nM
[3]
  AUC: 396 ± 42 ng·h/mL
  half-life: 1.5 ± 0.1 h
  Cmax: 108 ± 18 ng/mL
